Experimental data as given in patent US20120065126A1, “Pharmaceutical Compositions Containing Antifungal Peptides” (BASF SE, priority 2009, published 2012).

Experiments:
[1] = system: Klebsiella pneumoniae (DSM 681); assay type: cell-based; conditions: DSM 681, 24 h
Description: Effect of peptide P18 (P18 sequence H-KWKLFKKIPKFLHLAKKF-NH2 (Bachem AG, Switzerland)) on Klebsiella pneumoniae (DSM 681) to study.
TSBY growth medium (Becton, Dickinson and Company, Sparks, USA) 17 g of pancreatin-degraded caseine 3 g of pancreatin-degraded soya 2.5 g of dextrose 5 g of sodium chloride 2.5 g of dipotassium phosphate 3 g of yeast extract (Becton, Dickinson and Company, Sparks, USA) make up to 1 liter, set pH 7
A shake culture containing TSBY medium was inoculated with K. pneumoniae and incubated with shaking at 37° C. and 200 rpm overnight.
(§1) The suspension was adjusted to an optical density measured at 600 nm of 0.1. A 96-well microtiter plate was filled with 95 μl per well of the K. pneumoniae suspension. Then a dilution series of the peptide with a final concentration in the wells between 0 and 1000 ppm was added. To this end, 5 μl per well of peptide solution with a concentration in the range from 0 ppm to 20 000 ppm were added to the K. pneumoniae suspension, so as to obtain final concentrations of the peptide in the wells in the range between 0 ppm and 1000 ppm.
The microtiter plate was incubated at 37° C., 600 rpm. The bacterial growth was assessed by measuring the optical density at 620 nm and observing it over 24 hours. The experiments were conducted at least in double determination and were independently repeated at least once.

[2] = system: Malassezia furfur (DSM 6170); assay type: cell-based; conditions: DSM 6170, 72 h
Method: Minimum inhibitory concentration of peptide P18 (P18 sequence H-KWKLFKKIPKFLHLAKKF-NH2 (Bachem AG, Switzerland)) based on Malassezia furfur (DSM 6170)
Growth medium M472 Pityrosporum medium according to DSMZ:
40 g of malt extract (Becton, Dickinson and Company, Sparks, USA) 20 g of ox bile (Merck, Darmstadt, Germany)
A shake culture containing M472 Pityrosporum medium was inoculated with M. furfur and incubated with shaking at 30° C. and 200 rpm overnight.
as §1, with “M. furfur” for “K. pneumoniae”, “such that” for “so as to obtain”, “ppm were obtained.” for “ppm.”
The microtiter plate was incubated at 30° C., 600 rpm. The fungal growth was assessed by measuring the optical density at 620 nm and observed over 72 hours. The experiments were conducted at least in double determination and independently repeated at least once.

[3] = system: S. epidermidis (DSM 1798); assay: P18 in pharmaceutical base formulation (CFU); assay type: cell-based, Staphylococcus epidermidis; conditions: 10 000 ppm in the formulation, mixed 1:9 with suspension
Method: (§2) The aim of the experiment was to study the effect of a pharmaceutical base formulation containing the P18 peptide ingredient (P18 sequence H-KWKLFKKIPKFLHLAKKF-NH2 (Bachem AG, Switzerland)) on further fungi and bacteria. For this purpose, the following base formulation was used: […]
(§3) 1% hydroxycellulose 10% propylene glycol made up with water.
(§4) Based on the base formulation, formulations containing 10 000 ppm of P18 peptide were prepared from a 20% concentrate solution.
(§5) The effect of the formulations on S. epidermidis (DSM 1798), M. furfur (DSM 6170) and T. rubrum (DSM 21146) was studied.
TSBY growth medium for S. epidermidis Ready-made TSB medium (Becton, Dickinson and Company, Sparks, USA) 17 g of pancreatin-degraded casein 3 g of pancreatin-degraded soya 2.5 g of dextrose 5 g of sodium chloride 2.5 g of dipotassium phosphate 3 g of yeast extract (Becton, Dickinson and Company, Sparks, USA) make up to 1 liter, set pH 7 […]
(§6) 1.5 ml reaction vessels were each filled with 1 ml of medium and inoculated with the fungal or bacterial suspension from the overnight culture such that the resulting suspensions at the start of the experiment had been adjusted to an optical density, measured at 600 nm, of 0.1. […] After incubation over 24 hours, the colonies on the plates were counted.

T. rubrum (DSM 21146) = assay: P18 in pharmaceutical base formulation (CFU); assay type: cell-based, Trichophyton rubrum; conditions: 10 000 ppm in the formulation, mixed 1:9 with suspension
Method: as §2, §3, §4, §5
MEP growth medium according to DSMZ for T. rubrum 30 g of malt extract (Becton, Dickinson and Company, Sparks, USA) 3 g of soya peptone (Becton, Dickinson and Company, Sparks, USA) make up to 1 liter, set pH 5.6.
For T. rubrum, an agar plate on which it had grown was rinsed with 5 ml of medium. 10 μl of the resulting suspension were added to 1 ml of MEP medium and used directly in the experiment.
as §6

Which Minimum inhibitory concentration [1] does the source give for “H-KWKLFKKIPKFLHLAKKF-NH2 [P18, H-KWKLFKKIPKFLHLAKKF-NH2]” here?
The Minimum inhibitory concentration was 125 ppm.

What about the Minimum inhibitory concentration [2] of the same substance?
Its Minimum inhibitory concentration is 125 ppm.

What about the “Colony forming units after the incubation time specified” value (“Colony forming units” for short) ([3]; 5 minutes) of the same substance?
Its value is 790 ± 393 CFU.

And the “Colony forming units” value ([3]; 60 minutes)?
The value was 513 ± 20 CFU.

And the “Colony forming units” value (T. rubrum (DSM 21146); 5 minutes)?
Its value is 25 ± 8 CFU.

What about the “Colony forming units” value (T. rubrum (DSM 21146); 60 minutes) of the same substance?
The value was 6 ± 1 CFU.
